Assay results published in PubChem BioAssay (NCI).
“And” between values parts separate entries of the source, which are not always exact repeats. Identical values can stand only once.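 Where inhibition never reached the appropriate level, the endpoint shown equals the highest concentration tested. Otherwise, values were interpolated linearly from a five-concentration, 48-hour dose response in 96-well plates. Abbreviation: GI50, concentration required for 50% inhibition of growth. TGI denotes the concentration required for complete inhibition of growth.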

Experiments:
Assay in all cases: NCI-60 cell line screen, 48 h
[1] = system: 786-0 renal
[2] = system: A498 renal
[3] = system: A549 NSCLC
[4] = system: ACHN renal
[5] = system: BT-549 breast
[6] = system: CAKI-1 renal
[7] = system: CCRF-CEM leukemia
[8] = system: COLO 205 colon
[9] = system: DU-145 prostate
[10] = system: EKVX NSCLC
[11] = system: HCC-2998 colon
[12] = system: HCT-116 colon
[13] = system: HCT-15 colon
[14] = system: HL-60(TB) leukemia
[15] = system: HOP-62 NSCLC
[16] = system: HOP-92 NSCLC
[17] = system: HS 578T breast
[18] = system: HT29 colon
[19] = system: IGROV1 ovarian
[20] = system: K-562 leukemia
[21] = system: KM12 colon
[22] = system: LOX IMVI melanoma
[23] = system: M14 melanoma
[24] = system: MALME-3M melanoma
[25] = system: MCF7 breast
[26] = system: MDA-MB-231 breast
[27] = system: MOLT-4 leukemia
[28] = system: NCI-H23 lung
[29] = system: NCI-H460 lung
[30] = system: NCI-H522 lung
[31] = system: NCI/ADR-RES ovarian
[32] = system: OVCAR-3 ovarian
[33] = system: OVCAR-5 ovarian
[34] = system: OVCAR-8 ovarian
[35] = system: PC-3 prostate
[36] = system: RPMI-8226 leukemia
[37] = system: RXF 393 renal
[38] = system: SF-268 CNS
[39] = system: SF-295 CNS
[40] = system: SF-539 CNS
[41] = system: SK-MEL-2 melanoma
[42] = system: SK-MEL-5 melanoma
[43] = system: SN12C renal
[44] = system: SNB-19 CNS
[45] = system: SR leukemia
[46] = system: SW-620 colon
[47] = system: TK-10 renal
[48] = system: U251 CNS
[49] = system: UACC-257 melanoma
[50] = system: UACC-62 melanoma
[51] = system: UO-31 renal

With `COc1ccc2c(c1)[nH]c(=O)c1c3ccccc3cn21` the GI50 [1] was 41.3 nM, the TGI [1] was 1840 nM and 2160 nM and the GI50 [2] was 22.3 nM and < 37.5 nM. The GI50 [3] was 67 nM, the TGI [3] was 1650 nM and 1690 nM and the GI50 [4] was 125 nM. For the same compound, the TGI [4] was 1830 nM and 6410 nM, the GI50 [5] was 54.9 nM and the TGI [5] was 2030 nM and 3830 nM. For the same compound, the GI50 [6] was 35.5 nM, the TGI [6] was 1970 nM and 5380 nM and the GI50 [7] was 30 nM. For the same compound, the GI50 [8] was 41.2 nM, the TGI [8] was 1160 nM and the TGI [9] was 11900 nM. For the same compound, the GI50 [10] was 90.7 nM and < 47.8 nM, the TGI [10] was 19100 nM and the GI50 [11] was 18.3 nM. For the same compound, the TGI [11] was 49.2 nM, the GI50 [12] was 39.5 nM and the TGI [12] was 1320 nM and 1120 nM. The GI50 [13] was 26.2 nM and < 17.7 nM, the GI50 [14] was 11.4 nM and the TGI [14] was 60.7 nM. For the same compound, the GI50 [15] was 31.2 nM, the TGI [15] was 1230 nM and the GI50 [16] was 1010 nM and 2180 nM. For the same compound, the TGI [16] was 15900 nM, the GI50 [17] was 50.8 nM and the TGI [17] was 2710 nM and 14100 nM. For the same compound, the GI50 [18] was 34 nM, the GI50 [19] was 73.4 nM and < 11.4 nM and the TGI [19] was 2270 nM and 16000 nM. The GI50 [20] was 8.92 nM, the GI50 [21] was 33.1 nM and < 48.6 nM and the GI50 [22] was 71.2 nM. For the same compound, the TGI [22] was 1770 nM and 2090 nM, the TGI [23] was 12900 nM and the TGI [24] was 14900 nM. For the same compound, the GI50 [25] was 28.2 nM and < 37.8 nM, the TGI [25] was 1460 nM and 12700 nM and the GI50 [26] was 56.5 nM and 148 nM. The TGI [26] was 740 nM and 1080 nM, the GI50 [27] was 77.8 nM and the TGI [27] was 2140 nM and 9950 nM. For the same compound, the TGI [28] was 3390 nM and 14600 nM, the GI50 [29] was 34.8 nM and the TGI [29] was 1120 nM. For the same compound, the GI50 [30] was 59.7 nM, the TGI [30] was 2280 nM and 1480 nM and the GI50 [31] was 21.3 nM. For the same compound, the TGI [31] was 57.5 nM, the GI50 [32] was 22.3 nM and the TGI [32] was 65.2 nM. For the same compound, the GI50 [33] was 101 nM, the TGI [33] was 7860 nM and 5560 nM and the GI50 [34] was 58.1 nM. The TGI [34] was 2360 nM and 5180 nM, the GI50 [35] was 36.8 nM and the TGI [35] was 2550 nM and 3040 nM. The GI50 [36] was 36.6 nM, the TGI [36] was 1400 nM and 400 nM and the GI50 [37] was 20.4 nM. The TGI [37] was 3190 nM and 2470 nM, the GI50 [38] was 73.8 nM and the GI50 [39] was 26.8 nM. The TGI [39] was 1050 nM, the GI50 [40] was 22.8 nM and the TGI [40] was 70.4 nM and 207 nM. For the same compound, the TGI [41] was 2490 nM and 18700 nM, the GI50 [42] was 28.2 nM and the TGI [42] was 1170 nM and 728 nM. For the same compound, the GI50 [43] was 57.1 nM and 280 nM, the TGI [43] was 2080 nM and 8970 nM and the GI50 [44] was 38.7 nM. For the same compound, the TGI [44] was 4050 nM and 26400 nM, the TGI [45] was 2040 nM and the GI50 [46] was 26.4 nM. For the same compound, the TGI [46] was 1420 nM and 1510 nM, the GI50 [47] was 515 nM and 265 nM and the TGI [47] was 2430 nM and 2210 nM. The GI50 [48] was 43.6 nM, the TGI [48] was 1520 nM and 4440 nM and the GI50 [49] was 5130 nM and 12700 nM. The TGI [49] was 30800 nM, the GI50 [50] was 73.8 nM and the TGI [50] was 1890 nM and 13300 nM. For the same compound, the GI50 [51] was 79.5 nM and the TGI [51] was 2260 nM and 5820 nM.
